Test results taken from US10632174B2, “B7-H1 fusion polypeptides for treating and preventing organ failure” (Fraunhofer-Gesellschaft zur Förderung der angewandten …, priority 2015, dated 2020).

Experiments:
[1] = tested on: B7-H1 expression in Hepa1-6 cells; assay: B7-H1 mRNA (qPCR) and protein (Western) expression in Hepa1-6 cells; format: cell-based, murine; details: 100 ng/ml LPS with 10 mM NAC, FIG. 7 vs FIG. 3B
Protocol: FIG. 3: B7-H1 expression in Hepa1-6 cells following LPS or LTA stimulation. Hepa1-6 cells were stimulated for the indicated times with 100 ng/ml LPS or 100 ng/ml LTA. Afterwards cells were harvested and mRNA was isolated or protein lysates were prepared as described in Materials and Methods. mRNA expression of B7-H1 (A) was analyzed by quantitative PCR. 18s rRNA was used as a house keeping gene. (B) B7-H1 protein expression following LPS stimulation was determined by Western analysis. All experiments were performed at least five times. Data represent the mean±SD (*p<0.5) or show a representative blot.
FIG. 7: B7-H1 expression was restored adding the GSH precursor N-acetyl-cysteine (NAC). Hepa1-6 cells were stimulated for the indicated times with 100 ng/ml LPS with 10 mM NAC. Afterwards cells were harvested and protein lysates were prepared as described in Materials and Methods. B7-H1 protein expression was determined by Western analysis. All experiments were performed at least five times. […]
LPS and LTA act via different Toll-like receptors (TLRs) on target cells i.e. TLR2 for LTA and TLR4 for LPS. […] To investigate whether a ROS-dependent mechanism was responsible for the reduction of B7-H1, ROS formation was determined in Hepa 1-6 cells treated with LPS alone or in combination with N-acetylcysteine (NAC). […]
B7-H1, B7-DC, PD-1, Fas and EGFP expression were analyzed by Western analysis. […]

[2] = tested on: B7-H1 surface expression in Hepa1-6 cells (Nox4 inhibition); assay: B7-H1 surface expression in Hepa1-6 cells by FACS; format: cell-based, murine; details: 10 μM, 24 h, no further treatment, FIG. 8A
Protocol: FIG. 8: Inhibition of Nox4 enhances B7-H1 expression. Hepa1-6 cells were treated with the Nox4-specific inhibitor GKT137831 [10 μM] for 24 h. Afterwards, cells were harvested and B7-H1 expression was determined by FACS analysis. A quantification of five independent experiments is provided in (A). In liver homogenates of global NOX4 knockout mice B7-H1 protein expression was examined by Western blotting (B). A representative blot is shown. A quantification of B7-H1 expression (WT vs. NOX4-KO; n=5/5; *p<0.5) is provided in (C). B7-H1 expression on hepatocytes following polymicrobial sepsis initiation by cecal ligation and puncture (CLP) was studied in liver single cell suspensions by FACS-analysis gating for CD45-, i.e. non-immune cells as described in Materials and Methods. A quantification is shown (D), (sham vs. CLP, WT sham is set as 1; n=5/5/5/5; *p<0.5). Liver damage in global NOX4 knockout mice following CLP operation is assessed by looking at ALT/AST release into the serum, which is determined with a Reflotron Plus […] analyzer (E) (NOX4-KO; sham vs. CLP; n=5/5, *p<0.5). […]
All antibodies and secondary reagents were titrated to optimal concentrations. […] Surface expression of B7-H1 and B7-DC on the surface of primary hepatocytes was determined by FACS analysis, using anti-B7-H-PE or anti-B7-DC-PE. […]

SMILES	B7-H1 protein expression [1]	increase of B7-H1 surface expression [2]
CC(=O)N[C@@H](CS)C(=O)O [NAC, N-acetylcysteine]	restored expression of B7-H1	–
CN(C)c1cccc(-c2c3c(=O)n(-c4ccccc4Cl)[nH]c3cc(=O)n2C)c1 [GKT137S31]	–	roughly 50%
